Measurements as given in paper PMC9044951, “Bioinformatic Mining and Structure-Activity Profiling of Baeyer-Villiger Monooxygenases from Mycobacterium tuberculosis” (mSphere, 2022).

Columns and labels:
[1] = target: Rv0565c (Mycobacterium tuberculosis, UniProt O53762)
[2] = target: Rv0892 (Mycobacterium tuberculosis, UniProt P9WNG1)
[3] = target: EthA (Rv3854c) (Mycobacterium tuberculosis, UniProt P9WNF9); assay type: biochemical
[4] = test system: CCCCCCC(C)=O; experiment: purified protein; conditions: pH 7.5; 25.0 °C
[5] = test system: CCCC(=O)CC(=O)OCC; experiment: purified protein; conditions: pH 7.5; 25.0 °C

Rv0565c, sequence (O53762 entry or part of it): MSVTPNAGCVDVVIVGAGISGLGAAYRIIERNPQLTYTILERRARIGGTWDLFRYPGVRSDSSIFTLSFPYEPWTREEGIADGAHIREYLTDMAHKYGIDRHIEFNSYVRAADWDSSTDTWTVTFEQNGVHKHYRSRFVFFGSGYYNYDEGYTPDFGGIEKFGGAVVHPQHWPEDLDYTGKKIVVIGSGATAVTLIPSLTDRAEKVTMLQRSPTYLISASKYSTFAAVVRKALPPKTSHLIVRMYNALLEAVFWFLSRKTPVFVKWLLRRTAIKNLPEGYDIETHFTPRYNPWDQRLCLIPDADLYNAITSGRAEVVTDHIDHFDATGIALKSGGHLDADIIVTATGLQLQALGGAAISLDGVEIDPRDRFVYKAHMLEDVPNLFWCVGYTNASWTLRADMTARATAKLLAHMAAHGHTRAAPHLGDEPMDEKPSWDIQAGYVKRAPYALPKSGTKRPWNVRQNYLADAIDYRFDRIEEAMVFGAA
Rv0892, sequence (P9WNG1 whole entry, looked up): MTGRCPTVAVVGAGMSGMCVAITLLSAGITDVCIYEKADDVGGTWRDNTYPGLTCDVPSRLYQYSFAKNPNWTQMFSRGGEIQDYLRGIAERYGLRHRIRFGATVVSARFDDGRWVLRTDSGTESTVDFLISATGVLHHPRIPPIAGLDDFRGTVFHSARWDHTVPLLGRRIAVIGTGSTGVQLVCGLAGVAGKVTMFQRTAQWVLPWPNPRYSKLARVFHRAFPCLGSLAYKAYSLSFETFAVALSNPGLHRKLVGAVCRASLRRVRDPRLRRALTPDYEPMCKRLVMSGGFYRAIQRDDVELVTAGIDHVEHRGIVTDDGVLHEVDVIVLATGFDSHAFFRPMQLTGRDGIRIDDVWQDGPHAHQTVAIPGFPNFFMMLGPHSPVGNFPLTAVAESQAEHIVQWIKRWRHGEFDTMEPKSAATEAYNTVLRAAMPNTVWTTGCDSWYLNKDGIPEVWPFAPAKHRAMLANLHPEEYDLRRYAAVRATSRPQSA
EthA (Rv3854c), sequence (P9WNF9 whole entry, looked up): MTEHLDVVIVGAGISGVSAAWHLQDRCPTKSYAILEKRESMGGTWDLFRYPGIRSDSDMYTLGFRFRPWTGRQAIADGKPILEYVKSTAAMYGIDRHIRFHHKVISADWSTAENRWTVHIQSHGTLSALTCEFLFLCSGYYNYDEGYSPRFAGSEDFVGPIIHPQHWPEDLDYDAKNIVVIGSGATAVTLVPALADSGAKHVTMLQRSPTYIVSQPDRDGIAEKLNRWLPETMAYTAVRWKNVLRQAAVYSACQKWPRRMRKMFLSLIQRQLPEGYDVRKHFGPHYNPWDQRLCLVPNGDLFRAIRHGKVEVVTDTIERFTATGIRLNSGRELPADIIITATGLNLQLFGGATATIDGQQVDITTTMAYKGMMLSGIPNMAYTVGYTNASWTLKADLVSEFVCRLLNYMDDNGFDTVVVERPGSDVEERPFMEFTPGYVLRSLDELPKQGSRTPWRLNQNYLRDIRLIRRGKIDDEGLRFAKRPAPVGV

| Compound | activity [1] | specific activity [2] | activity [3] | Km [4] [µM] | Km [5] [µM] |
| --- | --- | --- | --- | --- | --- |
| CCCC(=O)CC(=O)OCC [ethyl 3-oxohexanoate] | with 2-oct and Et3-ox being the most effective substrates | Rv0892 exhibits markedly low catalytic rates on the tested substrates | with 2-oct and Et3-ox being the most effective substrates | – | – |
| CCCCCCC(C)=O [2-octanone] | Rv0565c and EthA are efficient in oxidizing 2-octanone | Rv0892 exhibits markedly low catalytic rates on the tested substrates | Rv0565c and EthA are efficient in oxidizing 2-octanone | – | – |
| MymA (Rv3083), MymAcoli (Mycobacterium tuberculosis H37Rv) | – | – | – | 400 ± 100 | 240 ± 40 |
